Data taken from US20090215717A1, “Sulfated oligosaccharides” (Ivax Drug Research Institute Ltd., priority 2004, published 2009).
Structures can show the parent of a compound that is named as a salt. Where two headings read alike, the source gives them in different places.

Key:
BN rats [1] = assay: Allergen stimulated mucus production of airways epithelial cells, PAS(+) cell count (Model 2); assay type: in vivo, rat; conditions: for number of PAS(+) cells as percent of total number of cells (average ± SEM): lungs 48 h after challenge, challenge 27.6 ± 3.5, control 2.9 ± 0.9
Procedure: Sensitized BN rats were treated intratracheally with 0.01 or 1.0 mg/kg dose of compound of formula (IIA), two hours before antigenic challenge, using a similar protocol described in Model 1. Lungs were collected 48 hours after challenge and were fixed in 8% phophospate buffered formaldehyde. Samples were then processed for histochemistry routinely. 5 μm thick sections were stained with periodic-acid-Schiff (PAS) reagents and were counterstained with haematoxylin-eosine. On the sections each epithelial cells of the airways were counted in the whole preparation at a magnification of 400×. The number of PAS(+) [mucus producing] epithelial cells was expressed as the ratio of the […] of epithelial cells.
As it is shown in Table 2, allergen challenge stimulates the mucus production of airways epithelial cells (control vs. challenge).

Brown Norway (BN) rats = assay: Tracheal contraction to acetylcholine ex vivo after antigen challenge of ovalbumin-sensitized BN rats (Model 1); assay type: in vivo, rat; conditions: for MAX: contraction at maximal Ach concentration relative to control (mean ± SEM): placebo 220 ± 30, control 100 ± 0; for ED50: log M acetylcholine (Ach), causing 50% contraction relative to control (mean ± SEM): trachea 48 h post challenge, placebo 6.10 ± 0.30, control 5.16 ± 0.08
Procedure: Examination of the effect of locally administered sulfated oligosaccharides on airways' hyper-responsiveness ex vivo.
Brown Norway (BN) rats were actively sensitized to ovalbumin (OA) by a subcutaneous injection of 0.5 ml of OA/Al(OH)3 gel mixture (2 mg OA+10 g Al(OH)3/100 ml saline) on day 1 with subsequent subcutaneous injections (10 mg OA+10 g Al(OH)3/100 ml saline) given on days 14 and 21. On day 28, animals received the compound of formula (IIA) intratracheally (0.01 or 1.0 mg/kg dose) 2 hours before antigen challenge. Antigen challenge was performed by inhalation of nebulised ovalbumin (1% antigen solution administered in a TSE inhalation system for 1 hour). Animals were sacrificed 48 hours post antigen challenge wherein the tracheas were removed to an organ bath. Dissected tracheas were allowed to equilibrate for 30 minutes before measuring tracheal spasmogenic response curves to acetylcholine (Ach).
As shown in Table 1 ovalbumin challenge of sensitized animals in this model caused a significant tracheal hyper-reactivity to acetylcholine, when the response to the spasmogenic agent was determined 48 h after antigen challenge.

IP-3 receptor = molecular target: T1, IP-3 receptor (Rattus norvegicus, UniProt P29994); assay: IP-3 receptor antagonistic effect, rat cerebellum membrane preparations (Model 5); assay type: binding; conditions: for IC50 Average ± SEM (n) / IC50: inhibition of IP-3 binding
T1 construct: rat cerebellum membrane preparations; from tissue; host or cells: rat cerebellum (microsomal membrane preparation)
Procedure: The sulfated oligosaccharides of the present invention, depending on their chemical structure, inhibit the binding of inositol-1,4,5-trisphophate […] to its receptor in microsomal membrane preparations. As IP-3 is a messenger molecule playing distinguished role in the activation of different cells, interfering with this function can explain the anti-asthmatic effect of these sulfated oligosaccharides.
The IP-3 antagonist effect of the sulfated oligosaccharides was determined using rat cerebellum membrane preparations according to Worley et al. (JBC 262, 12132, 1987).

BN rats [2] = assay: Eosinophilia in bronchoalveolar lavage fluid (Model 4); assay type: in vivo, rat; conditions: for Eosinophil: eosinophil number/ml BALF (average ± SEM): BALF 48 h after challenge, challenge 1.00 ± 0.16, control 0.35 ± 0.04
Procedure: Sensitized BN rats were treated intratracheally with 0.01 and 1.0 mg/kg dose of compound of formula (IIA); two hours before antigenic challenge, using a similar protocol described in Model 1. Bronchoalveolar lavage fluids (BALF) were collected 48 hours after challenge and after staining, the number of eosinophils were determined.
As it is shown in Table 4, allergen challenge causes an increase in the number of eosinophils in the bronchioalveolar lavage.

BN rats [3] = assay: Perivascular oedema in asthmatic lung tissue (Model 3); assay type: in vivo, rat; conditions: for Oedema: area of oedema relative to area of vasculature (average ± SEM): lungs 48 h after challenge, challenge 224 ± 17, control 71 ± 7
Procedure: Sensitized BN rats were treated intratracheally with 0.01 and 1.0 mg/kg dose of compound of formula (IIA), two hours before antigenic challenge, using a similar protocol described in Model 1. Lungs were collected 48 hours after challenge and were fixed in 8% phosphate buffered formaldehyde. Samples were then processed for histochemistry routinely. […] thick sections were stained with periodic-acid-Schiff (PAS) reagents and were counterstained with haematoxylin-eosine. On the sections the areas of the connective tissue around the vasculare were determined and expressed as a ratio of the area of the corresponding blood vessel itself.

[4] = 0.01 mg/kg intratracheally 2 h before challenge
[5] = 1.0 mg/kg intratracheally 2 h before challenge
[6] = higher dose (1.0 mg/kg intratracheally)
[7] = 0.01 mg/kg intratracheally 2 h before antigen challenge
[8] = 1.0 mg/kg intratracheally 2 h before antigen challenge

T1 sequence (P29994 whole entry): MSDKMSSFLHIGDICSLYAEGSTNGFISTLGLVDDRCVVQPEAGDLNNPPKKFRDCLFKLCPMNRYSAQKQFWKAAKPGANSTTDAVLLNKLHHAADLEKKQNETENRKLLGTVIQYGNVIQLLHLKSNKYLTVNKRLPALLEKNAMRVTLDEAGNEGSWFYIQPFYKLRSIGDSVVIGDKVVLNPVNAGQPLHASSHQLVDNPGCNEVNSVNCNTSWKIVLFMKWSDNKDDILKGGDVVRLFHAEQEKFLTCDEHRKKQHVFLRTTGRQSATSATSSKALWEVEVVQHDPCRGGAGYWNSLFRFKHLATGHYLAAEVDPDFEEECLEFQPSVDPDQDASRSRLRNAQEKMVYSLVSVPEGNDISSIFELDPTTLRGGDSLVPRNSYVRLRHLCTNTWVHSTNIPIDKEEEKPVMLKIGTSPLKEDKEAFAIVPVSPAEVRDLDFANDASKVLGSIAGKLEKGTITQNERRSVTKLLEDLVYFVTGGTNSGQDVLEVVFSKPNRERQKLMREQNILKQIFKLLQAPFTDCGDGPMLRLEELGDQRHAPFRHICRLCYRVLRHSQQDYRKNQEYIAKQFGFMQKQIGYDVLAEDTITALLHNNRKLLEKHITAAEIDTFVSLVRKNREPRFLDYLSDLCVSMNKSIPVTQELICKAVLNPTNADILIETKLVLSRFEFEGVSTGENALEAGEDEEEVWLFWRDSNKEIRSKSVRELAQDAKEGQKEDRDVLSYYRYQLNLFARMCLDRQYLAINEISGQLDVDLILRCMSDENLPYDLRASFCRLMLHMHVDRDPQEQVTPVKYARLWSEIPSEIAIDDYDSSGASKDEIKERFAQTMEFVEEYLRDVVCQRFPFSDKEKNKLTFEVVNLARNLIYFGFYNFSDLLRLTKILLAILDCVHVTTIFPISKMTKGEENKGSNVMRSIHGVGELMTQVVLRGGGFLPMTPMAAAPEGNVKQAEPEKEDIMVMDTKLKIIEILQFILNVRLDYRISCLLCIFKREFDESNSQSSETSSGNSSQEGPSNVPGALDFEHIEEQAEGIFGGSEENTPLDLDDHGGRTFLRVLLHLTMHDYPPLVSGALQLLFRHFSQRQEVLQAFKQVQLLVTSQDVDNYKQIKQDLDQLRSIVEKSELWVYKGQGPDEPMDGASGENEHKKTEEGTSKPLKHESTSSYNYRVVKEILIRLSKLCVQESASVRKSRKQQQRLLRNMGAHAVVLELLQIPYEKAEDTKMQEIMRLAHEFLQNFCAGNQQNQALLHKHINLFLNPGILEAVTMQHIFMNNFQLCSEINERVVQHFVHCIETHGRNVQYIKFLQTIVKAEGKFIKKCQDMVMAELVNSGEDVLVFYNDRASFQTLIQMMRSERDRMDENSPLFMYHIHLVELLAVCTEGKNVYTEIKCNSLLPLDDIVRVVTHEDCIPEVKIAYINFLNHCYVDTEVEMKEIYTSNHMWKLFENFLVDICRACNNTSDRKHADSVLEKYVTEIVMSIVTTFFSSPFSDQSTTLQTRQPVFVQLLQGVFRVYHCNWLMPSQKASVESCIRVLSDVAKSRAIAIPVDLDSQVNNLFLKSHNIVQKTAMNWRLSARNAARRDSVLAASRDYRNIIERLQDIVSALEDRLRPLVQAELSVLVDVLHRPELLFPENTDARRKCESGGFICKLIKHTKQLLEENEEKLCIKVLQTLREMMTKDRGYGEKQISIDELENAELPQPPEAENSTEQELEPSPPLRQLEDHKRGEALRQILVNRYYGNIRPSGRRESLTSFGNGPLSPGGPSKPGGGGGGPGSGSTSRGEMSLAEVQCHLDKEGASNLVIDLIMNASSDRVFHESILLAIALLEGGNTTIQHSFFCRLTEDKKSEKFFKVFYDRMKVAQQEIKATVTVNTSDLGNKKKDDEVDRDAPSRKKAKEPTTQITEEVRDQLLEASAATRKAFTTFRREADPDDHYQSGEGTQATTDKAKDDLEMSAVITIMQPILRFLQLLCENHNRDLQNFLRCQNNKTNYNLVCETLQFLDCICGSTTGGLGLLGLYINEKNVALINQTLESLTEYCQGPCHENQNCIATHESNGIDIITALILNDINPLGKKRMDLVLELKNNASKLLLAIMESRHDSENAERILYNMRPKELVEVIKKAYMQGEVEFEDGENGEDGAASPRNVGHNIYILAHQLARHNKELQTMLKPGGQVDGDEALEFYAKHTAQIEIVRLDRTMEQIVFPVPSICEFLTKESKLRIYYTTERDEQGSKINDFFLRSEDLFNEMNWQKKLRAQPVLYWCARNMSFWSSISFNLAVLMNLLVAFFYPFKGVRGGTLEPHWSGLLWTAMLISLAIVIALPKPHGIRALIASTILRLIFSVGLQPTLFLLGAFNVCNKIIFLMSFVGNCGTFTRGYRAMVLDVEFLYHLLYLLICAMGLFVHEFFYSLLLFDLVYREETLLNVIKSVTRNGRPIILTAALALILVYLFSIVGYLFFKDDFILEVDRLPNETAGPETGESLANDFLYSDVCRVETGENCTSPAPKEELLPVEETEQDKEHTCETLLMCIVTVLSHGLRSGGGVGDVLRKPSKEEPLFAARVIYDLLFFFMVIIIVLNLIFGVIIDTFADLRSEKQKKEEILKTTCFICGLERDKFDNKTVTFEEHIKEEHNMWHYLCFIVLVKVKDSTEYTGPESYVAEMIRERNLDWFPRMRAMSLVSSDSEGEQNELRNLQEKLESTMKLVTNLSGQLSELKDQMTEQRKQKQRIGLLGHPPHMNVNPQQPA

| IC50 (IP-3 receptor; read-out: Average IC50) | IC50 (IP-3 receptor; read-out: IC50 Average ± SEM (n) (converted)) | Structure (SMILES) | effect on number of PAS(+), mucus producing cells (in words) (BN rats [1]; 0.01 mg/kg intratracheally) | number of PAS(+) cells as percent of total number of cells (average ± SEM) (BN rats [1]; [4]) | number of PAS(+) cells as percent of total number of cells (average ± SEM) (BN rats [1]; [5]) | effect on number of PAS(+), mucus producing cells (in words) (BN rats [1]; [6]) | MAX: contraction at maximal Ach concentration relative to control (mean ± SEM) (Brown Norway (BN) rats; [7]) | ED50: log M acetylcholine (Ach), causing 50% contraction relative to control (mean ± SEM) (Brown Norway (BN) rats; [7]) | MAX: contraction at maximal Ach concentration relative to control (mean ± SEM) (Brown Norway (BN) rats; [8]) | ED50: log M acetylcholine (Ach), causing 50% contraction relative to control (mean ± SEM) (Brown Norway (BN) rats; [8]) | effect on tracheal hyper-reactivity to acetylcholine (in words) (Brown Norway (BN) rats; both applied doses (0.01 and 1.0 mg/kg intratracheally)) | IP-3 antagonist activity (in words) (IP-3 receptor) | IC50 Average ± SEM (n) (IP-3 receptor) | Eosinophil: eosinophil number/ml BALF (average ± SEM) (BN rats [2]; [4]) | Eosinophil: eosinophil number/ml BALF (average ± SEM) (BN rats [2]; [5]) | effect on number of eosinophils in the bronchioalveolar lavage (in words) (BN rats [2]; higher doses (1.0 mg/kg intratracheally)) | effect on number of eosinophils in the bronchioalveolar lavage (in words) (BN rats [2]; smallest dose (0.01 mg/kg intratracheally)) | Oedema: area of oedema relative to area of vasculature (average ± SEM) (BN rats [3]; [4]) | Oedema: area of oedema relative to area of vasculature (average ± SEM) (BN rats [3]; [5]) | effect on extent of oedema around the vasculature (in words) (BN rats [3]; [6]) |
| --- | --- | --- | --- | --- | --- | --- | --- | --- | --- | --- | --- | --- | --- | --- | --- | --- | --- | --- | --- | --- |
| 238 nM | – | O=S(=O)([O-])OC[C@H]1O[C@H](OC[C@H]2O[C@H](O[C@]3(COS(=O)(=O)[O-])O[C@H](COS(=O)(=O)[O-])[C@@H](OS(=O)(=O)[O-])[C@@H]3OS(=O)(=O)[O-])[C@H](OS(=O)(=O)[O-])[C@@H](OS(=O)(=O)[O-])[C@@H]2OS(=O)(=O)[O-])[C@H](OS(=O)(=O)[O-])[C@@H](OS(=O)(=O)[O-])[C@H]1OS(=O)(=O)[O-].[K+].[K+].[K+].[K+].[K+].[K+].[K+].[K+].[K+].[K+].[K+] [IIC, raffinose undecasulfate undeca potassium salt] | – | – | – | – | – | – | – | – | – | significant IP-3 antagonist activity | 0.43 ± 0.05 (3) μg/ml | – | – | – | – | – | – | – |
| 194 nM | 244 nM | O=S(=O)(O)OC[C@H]1O[C@H](O[C@H]2O[C@H](COS(=O)(=O)O)[C@@H](OS(=O)(=O)O)[C@H](OS(=O)(=O)O)[C@H]2OS(=O)(=O)O)[C@H](OS(=O)(=O)O)[C@@H](OS(=O)(=O)O)[C@@H]1OS(=O)(=O)O [IIB, trehalose octasulfate octa potassium salt] | – | – | – | – | – | – | – | – | – | – | – | – | – | – | – | – | – | – |

| Structure (SMILES) | IC50 (IP-3 receptor; read-out: Average IC50) | IC50 (IP-3 receptor; read-out: IC50 Average ± SEM (n) (converted)) | effect on number of PAS(+), mucus producing cells (in words) (BN rats [1]; 0.01 mg/kg intratracheally) | number of PAS(+) cells as percent of total number of cells (average ± SEM) (BN rats [1]; [4]) | number of PAS(+) cells as percent of total number of cells (average ± SEM) (BN rats [1]; [5]) | effect on number of PAS(+), mucus producing cells (in words) (BN rats [1]; [6]) | MAX: contraction at maximal Ach concentration relative to control (mean ± SEM) (Brown Norway (BN) rats; [7]) | ED50: log M acetylcholine (Ach), causing 50% contraction relative to control (mean ± SEM) (Brown Norway (BN) rats; [7]) | MAX: contraction at maximal Ach concentration relative to control (mean ± SEM) (Brown Norway (BN) rats; [8]) | ED50: log M acetylcholine (Ach), causing 50% contraction relative to control (mean ± SEM) (Brown Norway (BN) rats; [8]) | effect on tracheal hyper-reactivity to acetylcholine (in words) (Brown Norway (BN) rats; both applied doses (0.01 and 1.0 mg/kg intratracheally)) | IP-3 antagonist activity (in words) (IP-3 receptor) | IC50 Average ± SEM (n) (IP-3 receptor) | Eosinophil: eosinophil number/ml BALF (average ± SEM) (BN rats [2]; [4]) | Eosinophil: eosinophil number/ml BALF (average ± SEM) (BN rats [2]; [5]) | effect on number of eosinophils in the bronchioalveolar lavage (in words) (BN rats [2]; higher doses (1.0 mg/kg intratracheally)) | effect on number of eosinophils in the bronchioalveolar lavage (in words) (BN rats [2]; smallest dose (0.01 mg/kg intratracheally)) | Oedema: area of oedema relative to area of vasculature (average ± SEM) (BN rats [3]; [4]) | Oedema: area of oedema relative to area of vasculature (average ± SEM) (BN rats [3]; [5]) | effect on extent of oedema around the vasculature (in words) (BN rats [3]; [6]) |
| --- | --- | --- | --- | --- | --- | --- | --- | --- | --- | --- | --- | --- | --- | --- | --- | --- | --- | --- | --- | --- |
| O=S(=O)([O-])OC[C@H]1O[C@@](COS(=O)(=O)[O-])(O[C@H]2O[C@H](COS(=O)(=O)[O-])[C@@H](OS(=O)(=O)[O-])[C@H](OS(=O)(=O)[O-])[C@H]2OS(=O)(=O)[O-])[C@@H](OS(=O)(=O)[O-])[C@@H]1OS(=O)(=O)[O-].[Na+].[Na+].[Na+].[Na+].[Na+].[Na+].[Na+].[Na+] [IIA, sucrose octasulfate octa sodium salt] | 208 nM | – | notably | 19.2 ± 2.7% | 7.3 ± 1.4% | statistically significantly decreased | 167 ± 36 | 4.73 ± 0.50 log M | 131 ± 22 | 4.98 ± 0.30 log M | notably decreased this elevation | significant IP-3 antagonist activity | 0.26 ± 0.05 (4) μg/ml | 0.89 ± 0.13 eosinophil number/ml BALF | 0.70 ± 0.08 eosinophil number/ml BALF | the decrease become statistically significant | decreases the extent of it | 177 ± 10 | 119 ± 7 | significantly decreased |
